Holding throughout (assay type): functional
One assay deals with Trichophyton benhamiae. As to the kind of experiment: Minimum inhibitory concentration against Trichophyton mentagrophytes (n=20). Particulars: Trichophyton benhamiae; for MIC50: read-out: MIC50; for MIC90: read-out: MIC90.
Another assay has as its system Aspergillus sp. As to the kind of experiment: Minimum inhibitory concentration against Aspergillus species (n=8). Particulars: Aspergillus sp.; for MIC50: read-out: MIC50; for MIC90: read-out: MIC90.
Assay [1] is described as follows: Minimum inhibitory concentration against Microsporum species (n=38). The settings on record: Microsporum; for MIC50: read-out: MIC50; for MIC90: read-out: MIC90.
The species entered for assay [2] is Cavia porcellus. As to the kind of experiment: Effective dose was measured in guinea pig infected with Microsporum canis on 21st day. The settings on record: Cavia porcellus; read-out: ED50.
Assay [3] is described as follows: Minimum inhibitory concentration against Trichophyton species (n=80). The settings on record: Trichophyton; for MIC50: read-out: MIC50; for MIC90: read-out: MIC90.
The species entered for the next assay is Mus musculus. As to the kind of experiment: Effective dose was measured in mice infected with Trichophyton mentagrophytes. Particulars: Mus musculus; read-out: ED50.
For assay [4], the species on record is Cavia porcellus. Nature of the assay: Effective dose was measured in guinea pig infected with Microsporum canis on 14th day. Particulars: Cavia porcellus; read-out: ED50.
Another assay concerns Candida. As to the kind of experiment: Minimum inhibitory concentration against Candida species (n=24). The settings on record: for MIC50: Candida, read-out: MIC50.
The test system of a further assay is Trichophyton rubrum. As to the kind of experiment: Minimum inhibitory concentration against Trichophyton rubrum (n=14). Particulars: Trichophyton rubrum; for MIC50: read-out: MIC50; for MIC90: read-out: MIC90.
The next assay relates to Epidermophyton floccosum. Nature of the assay: Minimum inhibitory concentration against Epidermophyton floccosum (n=12). The settings on record: Epidermophyton floccosum; for MIC50: read-out: MIC50; for MIC90: read-out: MIC90.
Assay [5] is filed under the species Cavia porcellus. Nature of the assay: Effective dose was measured in guinea pig infected with Microsporum canis on 7th day. Particulars: Cavia porcellus; read-out: ED50.
In a further assay the test system is Trichophyton tonsurans. Nature of the assay: Minimum inhibitory concentration against Trichophyton tonsurans (n=18). The settings on record: Trichophyton tonsurans; for MIC50: read-out: MIC50; for MIC90: read-out: MIC90.

Converted amounts (≈) assume the structure as drawn. Where only a bound is given, the exact number is not on record here.

Usually MIC50 stands for an inhibitory concentration at the 50% level, which refers to growth in some studies and to a panel of isolates in others. One may read the MIC90 as the lowest concentration that inhibits either 90% of growth or 90% of the strains tested, depending on the study. By ED50 is commonly meant the midpoint of the dose-response relation.

In the case of `CCN1C(=O)N(c2ccc(N3CCN(c4ccc(OC[C@@H]5CO[C@@](Cn6cncn6)(c6ccc(F)cc6F)O5)cc4)CC3)cc2)C(=O)C(C)(C)C1=O`, the MIC50 in the assay with Trichophyton benhamiae is 1 µg/mL (≈ 1.4 µM); with Aspergillus sp. it was above 20 µg/mL; in [1], 3.2 µg/mL (≈ 4.47 µM); in assay [3], above 20 µg/mL; with Candida it was 0.32 µg/mL (≈ 0.447 µM); in the assay with Trichophyton rubrum, 11.6 µg/mL (≈ 16.2 µM). In addition, the MIC50 in the assay with Epidermophyton floccosum was 1 µg/mL (≈ 1.4 µM); in the assay with Trichophyton tonsurans it was above 20 µg/mL. In addition, the MIC90 (in the assay on Trichophyton benhamiae; with Aspergillus sp.; in [1]; in assay [3]; with Candida; with Trichophyton rubrum) was above 20 µg/mL in each case. For the same compound, the MIC90 was 1 µg/mL (≈ 1.4 µM) in the assay with Epidermophyton floccosum and above 20 µg/mL in the assay with Trichophyton tonsurans. Moreover, the ED50 in the assay filed under Cavia porcellus [2] is 2.35 mg/kg; in the assay listed under Mus musculus, above 2.5 mg/kg; in the assay listed under Cavia porcellus [4], 3.28 mg/kg; in the assay filed under Cavia porcellus [5], 1.18 mg/kg.
For `CCC(C)n1ncn(-c2ccc(N3CCN(c4ccc(OC[C@H]5CO[C@](Cn6cncn6)(c6ccc(Cl)cc6Cl)O5)cc4)CC3)cc2)c1=O` (stereo not given in full) [ITRACONAZOLE], the MIC50 is 0.01 µg/mL (≈ 0.0142 µM) with Trichophyton benhamiae; 0.32 µg/mL (≈ 0.453 µM) in the assay with Aspergillus sp.; 0.032 µg/mL (≈ 0.0453 µM) in assay [1]; 0.1 µg/mL (≈ 0.142 µM) in [3]; 0.1 µg/mL (≈ 0.142 µM) in the assay with Candida; 0.01 µg/mL (≈ 0.0142 µM) with Trichophyton rubrum. The MIC50 worked out at 0.032 µg/mL (≈ 0.0453 µM) in the assay with Epidermophyton floccosum and 0.32 µg/mL (≈ 0.453 µM) in the assay on Trichophyton tonsurans. Besides, the MIC90 with Trichophyton benhamiae was 0.129 µg/mL (≈ 0.183 µM); in the assay on Aspergillus sp., 1.18 µg/mL (≈ 1.68 µM); in assay [1], 0.524 µg/mL (≈ 0.743 µM); in [3], 1 µg/mL (≈ 1.42 µM); in the assay on Candida it was 17 µg/mL (≈ 24.1 µM); in the assay with Trichophyton rubrum, 0.32 µg/mL (≈ 0.453 µM). The figures for the MIC90 in the assay with Epidermophyton floccosum and with Trichophyton tonsurans were 0.093 µg/mL (≈ 0.132 µM) and 0.524 µg/mL (≈ 0.743 µM), respectively. Further, the ED50 in the assay listed under Cavia porcellus [2] came to 1.18 mg/kg; in the assay filed under Mus musculus it was 2.6 mg/kg; in the assay filed under Cavia porcellus [4], 1.2 mg/kg; in the assay listed under Cavia porcellus [5], 0.84 mg/kg.
For `CCC1C(=O)N(CC)C(=O)N(c2ccc(N3CCN(c4ccc(OC[C@@H]5CO[C@@](Cn6cncn6)(c6ccc(F)cc6F)O5)cc4)CC3)cc2)C1=O` (stereo not given in full), the MIC50 with Trichophyton benhamiae is 1 µg/mL (≈ 1.4 µM); with Aspergillus sp., above 20 µg/mL; in [1], 1 µg/mL (≈ 1.4 µM); in assay [3], above 20 µg/mL; in the assay with Candida, 0.32 µg/mL (≈ 0.447 µM); in the assay on Trichophyton rubrum, 3.2 µg/mL (≈ 4.47 µM). The results for the MIC50 in the assay on Epidermophyton floccosum and in the assay on Trichophyton tonsurans were 1 µg/mL (≈ 1.4 µM) and above 20 µg/mL, respectively. Moreover, the MIC90 (with Trichophyton benhamiae; in the assay on Aspergillus sp.; in assay [1]; in assay [3]; against Candida; in the assay with Trichophyton rubrum) was above 20 µg/mL throughout. Further, the MIC90 in the assay on Epidermophyton floccosum was 3.2 µg/mL (≈ 4.47 µM); with Trichophyton tonsurans it was above 20 µg/mL. Further, the ED50 stood at 1.94 mg/kg in the assay filed under Cavia porcellus [2], 2.86 mg/kg in the assay filed under Mus musculus, 1.94 mg/kg in the assay filed under Cavia porcellus [4] and 1.18 mg/kg in the assay listed under Cavia porcellus [5].

Source of the values: ChEMBL document CHEMBL1142742, “Synthesis and in vitro and in vivo structure-activity relationships of novel antifungal triazoles for dermatology” (2005).
